For this data set the following is noted: Liquid; for Critical pressure: pulse heating; for Critical temperature: pulse-heating method.

Numbers after ± are expanded uncertainties.

The source of these data is the NIST ThermoML archive (doi:10.1021/je0604380).

Consider `OCCc1ccccc1` [2-phenylethanol], for which the Critical pressure is 3850 ± 240 kPa and the Critical temperature was 720 ± 14 K.
On the same counts, the results for `OCCCc1ccccc1` [3-phenyl-1-propanol] are 3460 ± 200 kPa and 732 ± 14 K.
For `OCCCCc1ccccc1` [4-phenyl-1-butanol] the same measures were 3070 ± 180 kPa and 746 ± 14 K.
For `Oc1ccccc1` [phenol] the same measures were 5670 ± 340 kPa and 695 ± 14 K.
